The values that follow come from ChEMBL document CHEMBL1201862, “PubChem BioAssay data set” (2004).

Each structure is given as a SMILES string.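 Dose response: 5 concentrations. Exposure: 48 h. Format: 96-well plates. Endpoint: linear interpolation; highest concentration if not reached. GI50 is the concentration that inhibits growth by half.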 Calls of active or inactive are those of the source. Cut-off read from the data, not from the text of the source: active = GI50 up to about 1.1 µM and inactive = higher.

Common to all, as to assay: NCI anticancer screen, dose series, 48 h
For experiment [1], the system named is HL-60.
The subject of experiment [2] is T47D.
The subject of experiment [3] is MCF7.
The test system of experiment [4] is 786-0.
In experiment [5] the test system is HOP-92.
Experiment [6] relates to IGROV-1.
In experiment [7] the test system is ACHN.
Experiment [8] has as its system TK-10.
Experiment [9] has as its system SR.
For experiment [10], the system named is NCI-H460.
The test system of experiment [11] is SNB-75.
Experiment [12] deals with UACC-62.
In experiment [13] the test system is UACC-257.
The subject of experiment [14] is OVCAR-4.
Experiment [15] deals with EKVX.
In experiment [16] the test system is BT-549.
Experiment [17] concerns OVCAR-5.
In experiment [18] the test system is U-251.
Experiment [19] concerns NCI-H522.

As to `COCn1c(C)c(C)c2c(=O)oc(C)nc21`, the GI50 in [1], in [2], in [3], in [4], in experiment [5] and in experiment [6] was > 100 µM (inactive) throughout. Besides, the GI50 in experiment [7] is > 100 µM (inactive); in experiment [8], > 100 µM (inactive); in experiment [9], > 100 µM (inactive); in experiment [10] it was > 100 µM (inactive); in [11] it was 83.4 µM (inactive); in experiment [12], > 100 µM (inactive). Also, the GI50 in [13], in [14], in experiment [15], in experiment [16], in experiment [17] and in experiment [18] was > 100 µM (inactive) each time. Also, the GI50 in [19] was 94.2 µM (inactive).
As for `CSC1=NS(=O)(=O)c2cc(C(=O)NN(C)C(=O)c3cc4c(cc3Cl)SC(SC)=NS4(=O)=O)c(Cl)cc2S1`, the GI50 in experiment [1] is > 10 µM (inactive); in experiment [2], > 10 µM (inactive); in experiment [3] it was 9.75 µM (inactive); in experiment [4], > 10 µM (inactive); in [5], > 10 µM (inactive); in experiment [6], > 10 µM (inactive). The GI50 in experiment [7], in experiment [8], in experiment [9], in experiment [10], in experiment [11] and in experiment [13] was > 10 µM (inactive) each time. Further, the GI50 in experiment [14], in experiment [15], in [16], in experiment [17], in experiment [18] and in experiment [19] was > 10 µM (inactive) throughout.
For the compound `Nc1nc(N)c(C2=CCNCC2)c(=O)[nH]1`, the GI50 in [1], in experiment [2], in experiment [3], in experiment [4], in experiment [5] and in experiment [6] was > 100 µM (inactive) in each case. Further, the GI50 in experiment [7], in experiment [9], in experiment [10], in [11], in experiment [12] and in experiment [13] was > 100 µM (inactive) throughout. Besides, the GI50 in experiment [14], in experiment [15], in experiment [16], in experiment [17], in [18] and in experiment [19] was > 100 µM (inactive) each time.
In the case of `O=C1CC(=O)NC(NNS(=O)(=O)c2ccc(Cl)cc2)=N1`, the GI50 in experiment [1] was 70.8 µM (inactive); in experiment [2] it was > 100 µM (inactive); in experiment [3], > 100 µM (inactive); in [4] it was > 100 µM (inactive); in [5], > 100 µM (inactive); in experiment [6], > 100 µM (inactive). Besides, the GI50 in [7], in experiment [8], in experiment [9], in experiment [10], in experiment [11] and in experiment [12] was > 100 µM (inactive) each time. Besides, the GI50 in [13], in [14], in experiment [16], in experiment [17], in experiment [18] and in experiment [19] was > 100 µM (inactive) in each case.
On to `O=C(c1ccccc1)c1c(C(F)(F)F)[n+]([O-])c2cc(Cl)c(Cl)cc2[n+]1[O-]`, for which the GI50 in experiment [1] was 0.789 µM (active); in [2] it was 1.45 µM (inactive); in experiment [3], 0.557 µM (active); in [4], 0.502 µM (active); in [5], 7.01 µM (inactive); in [6], 0.473 µM (active). Moreover, the GI50 in experiment [7] was 0.764 µM (active); in experiment [8] it was 1.07 µM (active); in experiment [9], 0.175 µM (active); in experiment [10] it was 1.15 µM (inactive); in [11], 1.31 µM (inactive); in experiment [12], 3.97 µM (inactive). Also, the GI50 in experiment [13] was 0.243 µM (active); in experiment [14], 1.56 µM (inactive); in experiment [15], 3.27 µM (inactive); in [16], 1.39 µM (inactive); in experiment [17] it was 1.69 µM (inactive); in experiment [18], 1.23 µM (inactive). Moreover, the GI50 in [19] is 0.557 µM (active).
`COC1CC(OC2C(C)OC(OC3C(C)OC(OC4C(O)CC(O[C@H]5CC[C@@]6(C)C(=CC[C@]7(O)[C@@H]6C[C@@H](OC(=O)/C=C/c6ccccc6)[C@@]6(C)[C@]7(O)CC[C@@]6(O)C(C)=O)C5)OC4C)CC3OC)CC2OC)OC(C)C1O` (some centres undefined): the GI50 in experiment [1], in experiment [2], in [3], in experiment [4], in experiment [5] and in [6] was > 6.25 µM (inactive) in each case. In addition, the GI50 in experiment [7], in experiment [8], in [9], in experiment [11], in experiment [12] and in experiment [13] was > 6.25 µM (inactive) in each case. For the same compound, the GI50 in experiment [14], in experiment [15], in experiment [16], in experiment [17], in experiment [18] and in experiment [19] was > 6.25 µM (inactive) each time.
Turning to `N=C(N)SCc1ccc(Cl)cc1Cl.O=[N+]([O-])c1c(O)c(Cl)cc(Cl)c1Cl`, the GI50 was 6.04 µM (inactive) in experiment [1]; 9.82 µM (inactive) in experiment [2]; 11.5 µM (inactive) in experiment [3]; 11.7 µM (inactive) in experiment [4]; 11.5 µM (inactive) in experiment [5]; 17.8 µM (inactive) in experiment [6]. Besides, the GI50 in [7] was 10.7 µM (inactive); in experiment [8], 6.18 µM (inactive); in experiment [9] it was 5.21 µM (inactive); in experiment [10], 10.6 µM (inactive); in [11] it was 15.1 µM (inactive); in experiment [12], 14.4 µM (inactive). The GI50 is 7.73 µM (inactive) in experiment [13]; 12 µM (inactive) in [14]; 15.3 µM (inactive) in experiment [15]; 16.3 µM (inactive) in experiment [16]; 16.3 µM (inactive) in [17]; 14.8 µM (inactive) in experiment [18]. Moreover, the GI50 in [19] was 10.3 µM (inactive).
Take `O=C(NC(N1CCN(c2cc3c(cc2F)c(=O)c(C(=O)O)cn3C2CC2)CC1)(C(F)(F)F)C(F)(F)F)c1ccccc1`: the GI50 in [1] is 25.4 µM (inactive); in experiment [2] it was 35.6 µM (inactive); in [3], 29.8 µM (inactive); in experiment [4], 45.2 µM (inactive); in experiment [5] it was 33.8 µM (inactive); in [6] it was 36.3 µM (inactive). Moreover, the GI50 in [7] is 35.8 µM (inactive); in experiment [8] it was 27.4 µM (inactive); in [9], 29.8 µM (inactive); in experiment [10], 32.1 µM (inactive); in [11], 33.6 µM (inactive); in [12], 33.3 µM (inactive). Moreover, the GI50 in [13] is 26.8 µM (inactive); in experiment [14], 35.2 µM (inactive); in experiment [15], 35.6 µM (inactive); in experiment [16], 51.2 µM (inactive); in experiment [17] it was 26.7 µM (inactive); in [18] it was 37.3 µM (inactive). Also, the GI50 in experiment [19] was 17.7 µM (inactive).
With `N#C/C(N)=C(\C#N)NC(=O)C(=O)N/C(C#N)=C(\N)C#N`, the GI50 in [2], in [3], in [4], in [5], in experiment [6] and in [7] was > 100 µM (inactive) each time. The GI50 was > 100 µM (inactive) in [8]; 58.2 µM (inactive) in experiment [9]; > 100 µM (inactive) in experiment [10]; 29.3 µM (inactive) in [11]; > 100 µM (inactive) in [12]; > 100 µM (inactive) in [13]. Besides, the GI50 in [14], in experiment [15], in experiment [16], in experiment [17], in experiment [18] and in experiment [19] was > 100 µM (inactive) in each case.
With `CC(=O)C1(C)CC(C#N)(C#N)C(C#N)=C1N` (centres undefined), the GI50 in [1] was > 100 µM (inactive); in experiment [2], > 100 µM (inactive); in [3] it was > 100 µM (inactive); in [4], > 100 µM (inactive); in [5], 21 µM (inactive); in [6], > 100 µM (inactive). In addition, the GI50 was > 100 µM (inactive) in [7]; > 100 µM (inactive) in experiment [8]; 56.2 µM (inactive) in experiment [9]; > 100 µM (inactive) in experiment [11]; > 100 µM (inactive) in [12]; > 100 µM (inactive) in experiment [13]. For the same compound, the GI50 was > 100 µM (inactive) in experiment [14]; 26.5 µM (inactive) in [15]; > 100 µM (inactive) in experiment [16]; > 100 µM (inactive) in [17]; > 100 µM (inactive) in [18]; > 100 µM (inactive) in experiment [19].
